We go through three compounds from ChEMBL document CHEMBL2396569, “6'-Methyl-5'-homoaristeromycin: a structural variation of the anti-orthopox virus candidate 5'-homoaristeromycin” (Bioorg Med Chem, 2013).

The source made the active and inactive calls. No cut-off for these calls is given here.

Data set [1] is described as follows: Cytotoxicity against african green monkey Vero 76 cells after 3 days by neutral red uptake assay. The format is cell-based. As to conditions: chlorocebus sabaeus.
Another data set concerns Cowpox virus. Put plainly: Antiviral activity against Cowpox virus infected in african green monkey Vero 76 cells assessed as inhibition of virus-induced cytopathic effect after 3 days by microscopic analysis. Format: functional, organism-based. To be noted: 72 h. (In general: Damage to the host cells serves as the signal in cytopathic effect assays.)
The next data set relates to Vaccinia virus. Put plainly: Antiviral activity against Vaccinia virus infected in african green monkey Vero 76 cells assessed as inhibition of virus-induced cytopathic effect after 3 days by microscopic analysis. To be noted: Orthopoxvirus vaccinia, 72 h. The format is functional, organism-based.
In data set [2] the test system is Venezuelan equine encephalitis virus. Put plainly: Antiviral activity against Venezuelan equine encephalitis virus. The format is functional, organism-based.
For a further data set, the system named is Punta Toro virus. Put plainly: Antiviral activity against Punta Toro virus. Format: functional, organism-based.
The next data set deals with Enterovirus. Briefly: Antiviral activity against Rhinovirus. The format is functional, organism-based.
The test system of the next data set is Sindbis virus. Briefly: Antiviral activity against Sindbis virus. Format: functional, organism-based.
Another data set has as its system West Nile virus. Put plainly: Antiviral activity against West Nile virus. The format is functional, organism-based.
Data set [3] relates to Influenza A virus. Briefly: Antiviral activity against Influenza A virus H1N1. Format: functional, organism-based.
The next data set has as its system Human alphaherpesvirus 2. Briefly: Antiviral activity against Herpes simplex virus 2. Format: functional, organism-based.
Another data set relates to Reovirus sp. Briefly: Antiviral activity against Reovirus. The format is functional, organism-based.
Another data set has as its system Human respirovirus 3. Put plainly: Antiviral activity against Human parainfluenza virus 3. Format: functional, organism-based.
In the next data set the test system is Hepatitis B virus. Briefly: Antiviral activity against Hepatitis B virus. The format is functional, organism-based.
For data set [4], the system named is Vesicular stomatitis virus. Put plainly: Antiviral activity against Vesicular stomatitis virus infected in human HEL cells assessed as inhibition of virus-induced cytopathic effect after 3 days by microscopic analysis. Format: functional, organism-based. As to conditions: 72 h.
The test system of another data set is unidentified adenovirus. Put plainly: Antiviral activity against Adenovirus. The format is functional, organism-based.
Data set [5] has as its system Influenza A virus. Put plainly: Antiviral activity against Influenza A virus H3N2. The format is functional, organism-based.
Data set [6] relates to unidentified human coronavirus. Put plainly: Antiviral activity against Human coronavirus. Format: functional.
In the next data set the test system is Pichinde virus. Briefly: Antiviral activity against Pichinde virus. The format is functional, organism-based.
Another data set concerns Human alphaherpesvirus 3. Briefly: Antiviral activity against Varicella zoster virus. Format: functional, organism-based.
A further data set has as its system Coxsackievirus B4. Put plainly: Antiviral activity against Human coxsackievirus B4. Format: functional, organism-based.
In a further data set the test system is Yellow fever virus. Briefly: Antiviral activity against Yellow fever virus. The format is functional, organism-based.
The next data set has as its system Hepatitis C virus. Put plainly: Antiviral activity against Hepatitis C virus. To be noted: Hepacivirus hominis. Format: functional, organism-based.
Another data set deals with Human alphaherpesvirus 1. Put plainly: Antiviral activity against Herpes simplex virus 1. Format: functional, organism-based.
Data set [7] can be described thus: Cytotoxicity against human HEL cells after 3 days by neutral red uptake assay. The format is cell-based.
Another data set concerns Feline coronavirus. Put plainly: Antiviral activity against Feline coronavirus. Format: functional, organism-based.
Data set [8] in a line: Cytotoxicity against human Daudi cells after 3 days by neutral red uptake assay. Format: cell-based.
A further data set has as its system Measles morbillivirus. Briefly: Antiviral activity against Measles virus. Format: functional, organism-based.
For a further data set, the system named is Human gammaherpesvirus 4. Briefly: Antiviral activity against Epstein Barr virus infected in human Daudi cells assessed as inhibition of virus-induced cytopathic effect after 3 days by microscopic analysis. Format: functional, organism-based. To be noted: human gammaherpesvirus 4, Daudi, 72 h.
The next data set has as its system Human betaherpesvirus 5. Briefly: Antiviral activity against Human cytomegalovirus. Format: functional, organism-based.
The test system of a further data set is Dengue virus. Put plainly: Antiviral activity against Dengue virus. Format: functional, organism-based.
Data set [9] has as its system Respiratory syncytial virus. Briefly: Antiviral activity against Respiratory syncytial virus. The format is functional, organism-based.
The test system of a further data set is Influenza B virus. Put plainly: Antiviral activity against Influenza B virus. The format is functional, organism-based.

For `Nc1ncnc2c1ncn2[C@@H]1C[C@H](CCO)[C@@H](O)[C@H]1O`, the CC50 – broadly, the concentration that lowers cell viability or growth by half – at 72 h in data set [1] was > 300 µM. For the same compound, the IC50 (in general, the point on the concentration scale where inhibition reaches its midpoint) with Cowpox virus was found to be 0.49 µM; in the data set on Vaccinia virus it was 4.29 µM.

With `C[C@@H](O)C[C@H]1C[C@@H](n2cnc3c(N)ncnc32)[C@H](O)[C@@H]1O` (mixture of isomers), the outcome (in data set [2]; with Punta Toro virus; with Enterovirus; in the data set on Sindbis virus; in the data set with West Nile virus; in the data set with Influenza A virus [3]) was inactive. Also, the outcome with Human alphaherpesvirus 2, in the data set on Reovirus sp., in the data set with Human respirovirus 3, in the data set with Hepatitis B virus, in the data set with unidentified adenovirus and with Influenza A virus [5] was inactive. The outcome (in [6]; in the data set with Pichinde virus; in the data set with Human alphaherpesvirus 3; in the data set on Coxsackievirus B4; in the data set on Yellow fever virus; in the data set with Hepatitis C virus) was inactive. In addition, the outcome (with Human alphaherpesvirus 1; with Feline coronavirus; in the data set with Measles morbillivirus; in the data set on Human betaherpesvirus 5; in the data set on Dengue virus; in data set [9]) was inactive. Besides, the outcome in the data set on Influenza B virus was inactive. The IC50 in [4] came out at 4.8 µM; in the data set on Human gammaherpesvirus 4, 6.6 µM; with Cowpox virus, 223 µM; in the data set on Vaccinia virus, 24 µM. Further, the CC50 at 72 h in data set [1], in [7] and in data set [8] was > 300 µM in each case.

As for `C[C@H](O)C[C@H]1C[C@@H](n2cnc3c(N)ncnc32)[C@H](O)[C@@H]1O` (mixture of isomers), the outcome (in [2]; with Punta Toro virus; in the data set with Enterovirus; with Sindbis virus; in the data set on West Nile virus; in the data set with Influenza A virus [3]) was inactive. Besides, the outcome in the data set on Human alphaherpesvirus 2, with Reovirus sp., in the data set on Human respirovirus 3, in the data set on Hepatitis B virus, with unidentified adenovirus and in the data set on Influenza A virus [5] was inactive. Further, the result (in [6]; in the data set with Pichinde virus; with Human alphaherpesvirus 3; with Coxsackievirus B4; with Yellow fever virus; in the data set on Hepatitis C virus) was inactive. Moreover, the result (in the data set with Human alphaherpesvirus 1; in the data set on Feline coronavirus; in the data set with Measles morbillivirus; in the data set on Human betaherpesvirus 5; in the data set with Dengue virus; in [9]) was inactive. In addition, the result with Influenza B virus was inactive. Also, the IC50 in data set [4] came out at 1.6 µM; with Human gammaherpesvirus 4, 6.4 µM; with Cowpox virus, 164 µM; with Vaccinia virus, 4.8 µM. Also, the CC50 at 72 h in data set [1], in data set [7] and in [8] was > 300 µM throughout.
